Data set [1] deals with PPP1C/PPP2AC/PPP5C/ PPP6C. To be noted: cited from earlier work.
Another data set concerns solid tumor patients. The note with it: of 46 solid tumor patients, Phase I; cited from earlier work.
The target of data set [2] is T1, PP2AC (Bos taurus, UniProt P67774). The experiment in a line: DiFMUP-based phosphatase inhibition assay. The class given is biochemical, bovine.
The target of data set [3] is T1, PP2AC. Kind of data set: [32P]-phosphohistone phosphatase assay. The class given is biochemical, bovine.
The nature of another data set: in vitro. The class given is cell-based. The note with it: human, EC50, cytotoxicity in U-937 cells, 72 hours, n=16.
A further data set relates to PP2AC versus PPP5C. The experiment in a line: Selectivity over the three substrate assays. The class given is biochemical. To be noted: with all three substrates.
In data set [4] the target is T2, PPP5C (Homo sapiens, UniProt P53041). The experiment in a line: Phosphopeptide. Type of data set: biochemical.
The next data set relates to HEK-293 cells. Kind of data set: Western analysis of ribosomal S6. Type of data set: cell-based, human. The note with it: wild-type HEK-293 cells, 0–2 μM, 3 hours.
Data set [5] addresses T1, PP2AC. Kind of data set: Phosphopeptide. Type of data set: biochemical, bovine.
In data set [6] the target is T2, PPP5C. Kind of data set: [32P]-phosphohistone phosphatase assay. The class given is biochemical.
Another data set deals with PP2A. To be noted: cited from earlier work.

For orientation: IC50 means the midpoint of a concentration-inhibition curve. Broadly, the EC50 is the concentration that produces a half-maximal response. A high value points to lower potency in that assay.

T1 sequence (P67774 whole entry): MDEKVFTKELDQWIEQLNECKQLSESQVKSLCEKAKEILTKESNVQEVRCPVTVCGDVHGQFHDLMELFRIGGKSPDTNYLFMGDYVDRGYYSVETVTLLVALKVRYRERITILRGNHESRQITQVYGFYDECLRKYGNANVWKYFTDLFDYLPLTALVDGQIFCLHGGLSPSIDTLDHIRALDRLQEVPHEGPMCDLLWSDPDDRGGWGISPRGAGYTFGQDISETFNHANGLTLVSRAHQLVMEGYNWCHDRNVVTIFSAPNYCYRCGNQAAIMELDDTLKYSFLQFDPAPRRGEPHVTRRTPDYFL
T2 sequence (P53041 whole entry): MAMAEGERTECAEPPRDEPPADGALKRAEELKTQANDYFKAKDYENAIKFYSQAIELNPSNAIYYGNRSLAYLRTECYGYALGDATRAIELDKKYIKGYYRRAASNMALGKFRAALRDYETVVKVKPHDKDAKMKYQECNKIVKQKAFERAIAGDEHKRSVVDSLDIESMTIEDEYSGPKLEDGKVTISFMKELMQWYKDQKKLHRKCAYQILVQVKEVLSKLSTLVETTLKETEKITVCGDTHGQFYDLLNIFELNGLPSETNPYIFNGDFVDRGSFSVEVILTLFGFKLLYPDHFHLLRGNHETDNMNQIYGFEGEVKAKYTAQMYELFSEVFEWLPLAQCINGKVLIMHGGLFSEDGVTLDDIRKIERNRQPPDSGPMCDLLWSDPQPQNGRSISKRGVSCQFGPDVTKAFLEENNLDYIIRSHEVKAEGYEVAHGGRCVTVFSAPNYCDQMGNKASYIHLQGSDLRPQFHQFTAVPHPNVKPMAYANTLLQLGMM

Microcystin: the IC50 in [1] is below 0.002 µM.

Take `C[C@@](O)(/C=C/[C@H]1CC=CC(=O)O1)[C@@H](C[C@@H](O)\C=C/C=C\C=C\CO)OP(=O)(O)O` [fostriecin]: in the data set on solid tumor patients, the “disease stability, number of patients” value was 16.

In the case of `C[C@@]12C(=O)OC(=O)[C@]1(C)[C@H]1CC[C@@H]2O1` [cantharidin], in [1] (catalytic inhibitor), the “affinity for ser/thr phosphatases 1, 2A, 5, and 6” value is on record as “submicromolar to low micromolar”.

Take `CN1CCN(C(=O)C2C3CCC(O3)C2C(=O)O)CC1` (centres unmarked) [LB-100, 3-(4-methylpiperazine-1-carbonyl)-7-oxabicyclo[2.2.1]heptane-2-carboxylic acid]: the IC50 against PP2AC [2] turned out to be 0.39 µM; against PP2AC [3], 0.64 µM; against PPP5C [4], 6.64 µM; against PP2AC [5] it was 1.27 µM; against PPP5C [6], 4.9 µM. The concentration giving a half-maximal response (EC50) in “in vitro” (LB-100 alone) stood at 11.7 µM; in “in vitro” (LB-100 and 500 nM dexamethasone), 5.48 µM. The “selectivity for PP2AC versus PPP5C” value in the data set with PP2AC versus PPP5C is 4–7 fold. Also, the “phosphorylation of ribosomal protein S6 (Ser235/236)” value in the data set on HEK-293 cells is “induced in the wild-type HEK-293 cells by LB-100 in a dose-dependent manner”.

In the case of “4-(3-carboxy-7-oxa-bicyclo [2.2.1] heptane-2-carbonyl)piperazine-1-carboxylic acid tert- butyl ester [LB-102]”, the “selectivity for PP2A” value in the data set on PP2A is reported as > 10,000 fold.

On to nodularin, for which, in data set [1], the 50% inhibitory concentration (IC50) was below 0.002 µM.

Values taken from publication PMC6397705 (Molecular cancer therapeutics, 2019).
